From patent US11820766B2, “Monoacylglycerol lipase modulators” (Janssen Pharmaceutica NV, priority 2018, dated 2023) come the findings set out here.

The target in the first experiment is T1, human MGL from HeLa cells (Homo sapiens, UniProt Q99685).
T1 construct: combining endogenously expressed MGL from HeLa cells with test compounds; endogenous in cells; host or cells: HeLa cells / cell homogenates
T1 sequence (Q99685 1-303): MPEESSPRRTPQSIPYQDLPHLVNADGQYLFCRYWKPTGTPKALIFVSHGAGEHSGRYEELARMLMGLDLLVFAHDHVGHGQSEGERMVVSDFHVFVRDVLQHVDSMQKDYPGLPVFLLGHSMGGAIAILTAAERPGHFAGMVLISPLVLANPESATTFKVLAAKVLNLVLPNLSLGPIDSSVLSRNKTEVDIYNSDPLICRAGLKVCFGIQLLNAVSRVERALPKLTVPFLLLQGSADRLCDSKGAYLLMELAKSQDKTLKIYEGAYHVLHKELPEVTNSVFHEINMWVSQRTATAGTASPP
Kind of experiment: In vitro MGL activity assay: [glycerol-1,3-3H]-oleyl glycerol cleavage by MGL from HeLa cells. It is filed as biochemical. The conditions noted are these: 300 nM [Glycerol-1,3-3H]-oleyl glycerol, one hour. From the text:
MGL is the predominant hydrolase in HeLa cells/cell homogenates.
As to `C[C@H]1c2nn(C)c(-c3cc(F)c(F)c(F)c3)c2CCN1C(=O)c1ccc2nccn2n1` [Example 452, [(7S)-2,7-Dimethyl-3-(3,4,5-trifluorophenyl)-5,7-dihydro-4H-pyrazolo[3,4-c]pyridin-6-yl]-imidazo[1,2-b]pyridazin-6-yl-methanone], it took 276 nM to reach half-maximal inhibition (IC50).
Same read-out and setting: next, `C[C@H]1c2nn(-c3ccccc3)c(-c3ccccc3)c2CCN1C(=O)c1cnn(C)c1C1CC1` [Example 350, (S)-(5-cyclopropyl-1-methyl-1H-pyrazol-4-yl) (7-methyl-2,3-diphenyl-2,4,5,7-tetrahydro-6H-pyrazolo[3,4-c]pyridin-6-yl)methanone]: 27.6 nM; `C[C@H]1c2nn(C)c(-c3cccc4c3OCO4)c2CCN1C(=O)c1ccc2ncccc2c1` [Example 541, [(7S)-3-(1,3-Benzodioxol-4-yl)-2,7-dimethyl-5,7-dihydro-4H-pyrazolo[3,4-c]pyridin-6-yl]-(6-quinolyl)methanone]: 2.17 nM.
Same read-out and setting: then `C[C@H]1c2nn(C)c(-c3cc(F)c(F)c(F)c3)c2CCN1C(=O)c1cnn(C)c1C1CC1F` (mixture of isomers) [Example 340, ((S)-2,7-Dimethyl-3-(3,4,5-trifluorophenyl)-2,4,5,7-tetrahydro-6H-pyrazolo[3,4-c]pyridin-6-yl)(trans-5-(2-fluorocyclopropyl)-1-methyl-1H-pyrazol-4-yl)methanone], with 32.5 nM; and `C[C@H]1c2nn(C)c(-c3cc(F)c(F)c(F)c3)c2CCN1C(=O)c1c[nH]c2ncccc12` [Example 373, [(7S)-2,7-Dimethyl-3-(3,4,5-trifluorophenyl)-5,7-dihydro-4H-pyrazolo[3,4-c]pyridin-6-yl]-(1H-pyrrolo[2,3-b]pyridin-3-yl)methanone], with 23.2 nM.
As for `Cc1ccc(-c2c3c(nn2C)[C@H](C)N(C(=O)c2ccc4ncccc4c2)CC3)cn1` [Example 519, [(7S)-2,7-Dimethyl-3-(6-methyl-3-pyridyl)-5,7-dihydro-4H-pyrazolo[3,4-c]pyridin-6-yl]-(6-quinolyl)methanone], the IC50 turned out to be 1450 nM.
Compound `C[C@H]1c2nn(C)c(-c3cc(F)c(F)c(F)c3)c2CCN1C(=O)c1cc2c(cn1)OCCC2` [Example 573, 3,4-Dihydro-2H-pyrano[2,3-c]pyridin-6-yl-[(7S)-2,7-dimethyl-3-(3,4,5-trifluorophenyl)-5,7-dihydro-4H-pyrazolo[3,4-c]pyridin-6-yl]methanone] came in with an IC50 of 242 nM.
`C[C@H]1c2nn(C)c(-c3cc(F)c(F)c(F)c3)c2CCN1C(=O)c1cnc2ccccc2n1` [Example 477, [(7S)-2,7-Dimethyl-3-(3,4,5-trifluorophenyl)-5,7-dihydro-4H-pyrazolo[3,4-c]pyridin-6-yl]-quinoxalin-2-yl-methanone] came in with an IC50 of 126 nM.
Still for that read-out and setting: then `C[C@H]1c2nn(C)c(-c3cc(F)c(F)c(F)c3)c2CCN1C(=O)c1ccnc2c1CCCO2` [Example 564, 3,4-Dihydro-2H-pyrano[2,3-b]pyridin-5-yl-[(7S)-2,7-dimethyl-3-(3,4,5-trifluorophenyl)-5,7-dihydro-4H-pyrazolo[3,4-c]pyridin-6-yl]methanone], with 58.7 nM; and `C[C@H]1c2nn(C)c(-c3cc(F)c(F)c(F)c3)c2CCN1C(=O)c1n[nH]c2cnccc12` [Example 430, [(7S)-2,7-Dimethyl-3-(3,4,5-trifluorophenyl)-5,7-dihydro-4H-pyrazolo[3,4-c]pyridin-6-yl]-(1H-pyrazolo[3,4-c]pyridin-3-yl)methanone], with 56.1 nM.
The same measure, in the same setting: then `Cc1nc2c(C)cccn2c1C(=O)N1CCc2c(nn(C)c2-c2cc(F)c(F)c(F)c2)[C@@H]1C` [Example 403, (2,8-Dimethylimidazo[1,2-a]pyridin-3-yl)-[(7S)-2,7-dimethyl-3-(3,4,5-trifluorophenyl)-5,7-dihydro-4H-pyrazolo[3,4-c]pyridin-6-yl]methanone], with 43.6 nM; and `C[C@H]1c2nn(C)c(-c3cc(F)c(F)c(F)c3)c2CCN1C(=O)c1cnc2n1CCC2` [Example 559, 6,7-Dihydro-5H-pyrrolo[1,2-a]imidazol-3-yl-[(7S)-2,7-dimethyl-3-(3,4,5-trifluorophenyl)-5,7-dihydro-4H-pyrazolo[3,4-c]pyridin-6-yl]methanone], with 294 nM.
Same read-out and setting: next, `C[C@H]1c2nn(C)c(-c3cccc(F)c3F)c2CCN1C(=O)c1ccc2ncccc2c1` [Example 503, [(7S)-3-(2,3-Difluorophenyl)-2,7-dimethyl-5,7-dihydro-4H-pyrazolo[3,4-c]pyridin-6-yl]-(6-quinolyl)methanone]: 22 nM; `C[C@H]1c2nn(C)c(-c3cc(F)c(F)c(F)c3)c2CCN1C(=O)c1ccnc2[nH]ncc12` [Example 422, [(7S)-2,7-Dimethyl-3-(3,4,5-trifluorophenyl)-5,7-dihydro-4H-pyrazolo[3,4-c]pyridin-6-yl]-(1H-pyrazolo[3,4-b]pyridin-4-yl)methanone]: 45.9 nM.

Staying with this experiment, now noted: 300 nM [Glycerol-1,3-3H]-oleyl glycerol, one hour incubation.
As to `C[C@H]1c2nn(C)c(-c3cc(F)c(F)c(F)c3)c2CCN1C(=O)c1cn(C)c2cccnc12` [Example 220, (S)-(2,7-Dimethyl-3-(3,4,5-trifluorophenyl)-2,4,5,7-tetrahydro-6H-pyrazolo[3,4-c]pyridin-6-yl)(1-methyl-1H-pyrrolo[3,2-b]pyridin-3-yl)methanone], the IC50 stood at 130 nM. That is a sub-micromolar value.
The same measure, in the same setting: then `Cc1ccc(-c2c3c(nn2C)[C@H](C)N(C(=O)c2ccc4nccnc4c2)CC3)o1` [Example 107, (S)-(2,7-Dimethyl-3-(5-methylfuran-2-yl)-2,4,5,7-tetrahydro-6H-pyrazolo[3,4-c]pyridin-6-yl)(quinoxalin-6-yl)methanone], with 261 nM; and `Cn1nc2c(c1-c1ccccc1)CCN(C(=O)c1cccc3scnc13)C2` [Example 61, Benzo[d]thiazol-4-yl(2-methyl-3-phenyl-2,4,5,7-tetrahydro-6H-pyrazolo[3,4-c]pyridin-6-yl)methanone], with 755 nM; and `CC1c2nn(C)c(-c3cc4ccccc4n3C)c2CCN1C(=O)c1ccc2ncccc2c1` (stereo not shown) [Example 250, (2,7-Dimethyl-3-(1-methyl-1H-indol-2-yl)-2,4,5,7-tetrahydro-6H-pyrazolo[3,4-c]pyridin-6-yl)(quinolin-6-yl)methanone], with 206 nM.
The same measure, in the same setting: next, `Cc1ccc(C(=O)N2CCc3c(nn(C)c3-c3cc(F)c(F)c(F)c3)[C@@H]2C)cc1-n1cnnc1` [Example 294, [(7S)-2,7-Dimethyl-3-(3,4,5-trifluorophenyl)-5,7-dihydro-4H-pyrazolo[3,4-c]pyridin-6-yl]-[4-methyl-3-(1,2,4-triazol-4-yl)phenyl]methanone]: 1660 nM; `Cn1nc2c(c1-c1ccccc1)CCN(C(=O)c1ccc3scnc3c1)C2` [Example 60, Benzo[d]thiazol-5-yl(2-methyl-3-phenyl-2,4,5,7-tetrahydro-6H-pyrazolo[3,4-c]pyridin-6-yl)methanone]: 550 nM.
`C[C@H]1c2nn(C)c(-c3cc(F)c(F)c(F)c3)c2CCN1C(=O)c1cccc(-n2cnnc2)c1` [Example 290, [(7S)-2,7-Dimethyl-3-(3,4,5-trifluorophenyl)-5,7-dihydro-4H-pyrazolo[3,4-c]pyridin-6-yl]-[3-(1,2,4-triazol-4-yl)phenyl]methanone] returned an IC50 of 71.8 nM.
The same measure, in the same setting: then `Cn1nc2c(c1-c1ccccc1)CCN(C(=O)c1cccc3ncccc13)C2` [Example 89, (2-Methyl-3-phenyl-2,4,5,7-tetrahydro-6H-pyrazolo[3,4-c]pyridin-6-yl)(quinolin-5-yl)methanone], with 56 nM.

In general, IC50 refers to the concentration that inhibits the measured activity by half. Low readings indicate inhibition by little substance, high ones a need for much substance.
